Test system: healthy volunteers
Assay: Continuous Performance Test (CPT)
Type: in vivo, human
Protocol: Performance Assessment: A Continuous Performance Test (CPT; Rosvold M E, Mirsky A F, Sarason I, Bransome E R Jr., Beck L H (1956) A continuous performance test for brain damage. J Consult Psychol 20:343-350, which is incorporated herein by reference in its entirety), was used to evaluate attention and vigilance. The test was administered both during the evening and the morning following the baseline PSG on Day 1 and the evaluation PSG on Day 13. Participants were rapidly presented a numerical train with a target number as point of reference. Participants pushed a button rapidly when the target number appeared in the number list. The procedure lasted three minutes. The number of targets detected and the number of false alarms were assessed.

CPT detected targets and false alarm change scores (any dose, evening and morning (p>0.10)): absence of effect | daytime functioning (in words): did not impair
SMILES: CC(C)COc1ccc(CNC(=O)N(Cc2ccc(F)cc2)C2CCN(C)CC2)cc1 [N-(1-methylpiperidin-4-yl)-N-(4-fluorophenylmethyl)-N′-(4-(2-methylpropyloxy)phenylmethyl)carbamide]

— patent US20080051429A1, “USE OF 4-AMINO-PIPERIDINES FOR TREATING SLEEP DISORDERS” (priority 2006, published 2008)
